Measurements from patent publication US20250243186A1, “PIPERIDINYL INDOLE DERIVATIVES, PREPARATION METHODS AND MEDICINAL USES THEREOF” (HANSOH BIO LLC, priority 2021, published 2025).

The compounds below were run against Recombinant human Factor B catalytic domain (Homo sapiens (Human), UniProt P00751) (assay: Factor B binding assay by TR-FRET). Conditions: Factor B TR-FRET IC50 (nM), 10 nM his-tagged Factor B catalytic domain, 100 nM tracer, 1 h.
Recombinant human Factor B catalytic domain, sequence (P00751 470-764): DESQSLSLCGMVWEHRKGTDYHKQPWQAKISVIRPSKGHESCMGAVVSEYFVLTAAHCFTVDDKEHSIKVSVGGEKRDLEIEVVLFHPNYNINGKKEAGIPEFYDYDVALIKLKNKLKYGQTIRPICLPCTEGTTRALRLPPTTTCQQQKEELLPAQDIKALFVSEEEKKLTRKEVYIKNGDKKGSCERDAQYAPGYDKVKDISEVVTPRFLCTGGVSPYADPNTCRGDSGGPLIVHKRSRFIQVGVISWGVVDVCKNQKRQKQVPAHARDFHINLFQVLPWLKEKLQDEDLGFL
Description: • 1. […] 5× Kinase Buffer A (Thermo Fisher, CAT #PV3189) • 3. LANCE Eu-W1024 Anti-6×His Antibody (PerkinElmer, CAT #AD0401) • 4.
DMSO (Thermo Fisher Scientific) • 6. Compounds—10 mM stock in DMSO • 7. Victor Nivo multimode plate reader (PerkinElmer) • 8.
Factor B binding affinity of each compound tested was determined using a time-resolved fluorescence resonance energy transfer (TR-FRET) technology. 10 nM recombinant his-tagged Factor B catalytic domain, varying concentrations of inhibitors, 4 nM LANCE Eu-W1024 Anti-6×His Antibody and 100 nM TR-FRET_tool2 tracer was incubated in 1× Kinase Buffer A for 1 h. Measurement was performed in a reaction volume of 15 μL by adding 5 μL of the test compound, 5 μL of Factor B/antibody mixture and 5 μL of tracer into white opaque 384-well assay plates.
For Cc1cc(C)c2[nH]ccc2c1CN1CCC2(CCCO2)CC1c1ccc(C(=O)O)cc1 (single isomer, unassigned) [2 (Isomer 3), 4-(8-((5,7-dimethyl-1H-indol-4-yl)methyl)-1-oxa-8-azaspiro[4.5]decan-7-yl)benzoic acid], the IC50 was 507 nM. COc1cc(C)c2[nH]ccc2c1CN1CCC2(CCC(F)(F)C2)CC1c1ccc(C(=O)O)cc1 (stereo not drawn) [Example 41, 4-(2,2-difluoro-8-((5-methoxy-7-methyl-1H-indol-4-yl)methyl)-8-azaspiro[4.5]decan-7-yl)benzoic acid] gave an IC50 of 20.1 nM. COc1cc(C)c2[nH]ccc2c1CN1CCC2(CCO2)CC1c1ccc(C(=O)O)cc1 (single isomer, unassigned) [38 (Isomer 4), 4-(7-((5-methoxy-7-methyl-1H-indol-4-yl)methyl)-1-oxa-7-azaspiro[3.5]nonan-6-yl)benzoic acid] was tested, and the IC50 was 4.8 nM. Compound Cc1cc(C)c2[nH]ccc2c1CN1CC2(CCCCC2)C1c1ccc(C(=O)O)cc1 (stereo not drawn) [Example 16, 4-(2-((5,7-dimethyl-1H-indol-4-yl)methyl)-2-azaspiro[3.5]nonan-1-yl)benzoic acid] has an IC50 of 305 nM. In the case of COc1cc(C)c2[nH]ccc2c1C(C)N1CC2CCCC2C1c1ccc(C(=O)O)cc1 (single isomer, unassigned) [37 (Isomer 3), 4-(2-(1-(5-methoxy-7-methyl-1H-indol-4-yl)ethyl)octahydrocyclopenta[c]pyrrol-1-yl)benzoic acid], the IC50 is reported as 222 nM. For COc1cc(C)c2[nH]ccc2c1CN1C[C@@H]2CC(C)(C)C[C@@H]2C1c1ccc(C(=O)O)cc1 (single isomer, unassigned) [34 (Isomer 2)], the IC50 was 180 nM. With COc1cc(C)c2[nH]ccc2c1CN1CC2CC(C(F)F)CC2C1c1ccc(C(=O)O)cc1 (single isomer, unassigned) [39 (Isomer 3), 4-(5-(difluoromethyl)-2-((5-methoxy-7-methyl-1H-indol-4-yl)methyl)octahydrocyclopenta[c]pyrrol-1-yl)benzoic acid] the IC50 was 7.3 nM. For COc1cc(C)c2[nH]ccc2c1CN1CCC2(CC1c1ccc(C(=O)O)cc1)CC2(F)F (single isomer, unassigned) [8 (Isomer 2), 4-(1,1-difluoro-6-((5-methoxy-7-methyl-1H-indol-4-yl)methyl)-6-azaspiro[2.5]octan-5-yl)benzoic acid], the IC50 was 245 nM. Cc1cc(C)c2[nH]ccc2c1CN1CCC(CF)CC1c1ccc(C(=O)O)cc1 (single isomer, unassigned) [7 (Isomer 2), 4-(1-((5,7-dimethyl-1H-indol-4-yl)methyl)-4-(fluoromethyl)piperidin-2-yl)benzoic acid] was tested, and the IC50 was 157 nM. Compound COc1cc(C)c2[nH]ccc2c1CN1CC2CC3(CC3)CC2C1c1ccc(C(=O)O)cc1 (single isomer, unassigned) [29 (Isomer 2), 4-(2-((5-methoxy-7-methyl-1H-indol-4-yl)methyl)hexahydro-1H-spiro[cyclopenta[c]pyrrole-5,1′-cyclopropan]-1-yl)benzoic acid] has an IC50 of 43.7 nM. With Cc1cc(C)c2[nH]ccc2c1CN1C[C@@H]2CCCC2C1c1ccc(C(=O)O)cc1 (single isomer, unassigned) [9 (Isomer 2), 4-(2-((5,7-dimethyl-1H-indol-4-yl)methyl)octahydrocyclopenta[c]pyrrol-1-yl)benzoic acid] the IC50 was 40.6 nM. COc1cc(C)c2[nH]ccc2c1CN1CC2(CCOC2)CC1c1ccc(C(=O)O)cc1 (single isomer, unassigned) [28 (Isomer 2), 4-(7-((5-methoxy-7-methyl-1H-indol-4-yl)methyl)-2-oxa-7-azaspiro[4.4]nonan-8-yl)benzoic acid] showed an IC50 of 81.5 nM. For COc1cc(C)c2[nH]ccc2c1CN1CCCCC1c1ccc(C(=O)O)cc1C(F)F (single isomer, unassigned) [26 (Isomer 1), 3-(difluoromethyl)-4-(1-((5-methoxy-7-methyl-1H-indol-4-yl)methyl)piperidin-2-yl)benzoic acid], the IC50 was 31.5 nM. Work on COc1cc(C)c2[nH]ccc2c1CN1CCC2(CCC1c1ccc(C(=O)O)cc1)CC2(F)F (single isomer, unassigned) [24 (Isomer 2), 4-(1,1-difluoro-6-((5-methoxy-7-methyl-1H-indol-4-yl)methyl)-6-azaspiro[2.6]nonan-7-yl)benzoic acid] yielded an IC50 of 729 nM. For COc1cc(C)c2[nH]ccc2c1CN1CC2CC(C(F)F)CC2C1c1ccc(C(=O)O)cc1 (single isomer, unassigned) [39 (Isomer 1), 4-(5-(difluoromethyl)-2-((5-methoxy-7-methyl-1H-indol-4-yl)methyl)octahydrocyclopenta[c]pyrrol-1-yl)benzoic acid], the IC50 was 2.6 nM. Cc1cc(C)c2[nH]ccc2c1CN1CCC(C(F)F)CC1c1ccc(C(=O)O)cc1 (single isomer, unassigned) [6 (Isomer 2), 4-(4-(difluoromethyl)-1-((5,7-dimethyl-1H-indol-4-yl)methyl)piperidin-2-yl)benzoic acid] gave an IC50 of 142 nM. With COc1cc(C)c2[nH]ccc2c1C(C)N1CC2CCCC2C1c1ccc(C(=O)O)cc1 (single isomer, unassigned) [37 (Isomer 1), 4-(2-(1-(5-methoxy-7-methyl-1H-indol-4-yl)ethyl)octahydrocyclopenta[c]pyrrol-1-yl)benzoic acid] the IC50 was 322 nM. COc1cc(C)c2[nH]ccc2c1CN1CCC2(CCC1c1ccc(C(=O)O)cc1)CC2(F)F (single isomer, unassigned) [24 (Isomer 1), 4-(1,1-difluoro-6-((5-methoxy-7-methyl-1H-indol-4-yl)methyl)-6-azaspiro[2.6]nonan-7-yl)benzoic acid] was tested, and the IC50 was 1410 nM. COc1cc(C)c2[nH]ccc2c1CN1CCC2(CCOC2)CC1c1ccc(C(=O)O)cc1 (single isomer, unassigned) [36 (Isomer 3), 4-(8-((5-methoxy-7-methyl-1H-indol-4-yl)methyl)-2-oxa-8-azaspiro[4.5]decan-7-yl)benzoic acid] showed an IC50 of 125 nM. COc1cc(C)c2[nH]ccc2c1CN1CC2CCCC2C1c1ccc(C(=O)O)cc1 (single isomer, unassigned) [13 (Isomer 1), 4-(2-((5-methoxy-7-methyl-1H-indol-4-yl)methyl)octahydrocyclopenta[c]pyrrol-1-yl)benzoic acid] was tested, and the IC50 was 17.4 nM. COc1cc(C)c2[nH]ccc2c1CN1CCC2(CC1c1ccc(C(=O)O)cc1)CC(C)(F)C2 (single isomer, unassigned) [42 (Isomer 1), 4-(2-fluoro-7-((5-methoxy-7-methyl-1H-indol-4-yl)methyl)-2-methyl-7-azaspiro[3.5]nonan-6-yl)benzoic acid] was tested, and the IC50 was 4 nM. Compound Cc1cc(C)c2[nH]ccc2c1CN1CCC(CF)CC1c1ccc(C(=O)O)cc1 (single isomer, unassigned) [7 (Isomer 1), 4-(1-((5,7-dimethyl-1H-indol-4-yl)methyl)-4-(fluoromethyl)piperidin-2-yl)benzoic acid] has an IC50 of 313 nM. COc1cc(C)c2[nH]ccc2c1CN1CC2(CCOCC2)CC1c1ccc(C(=O)O)cc1 (stereo not drawn) [Example 30, 4-(2-((5-methoxy-7-methyl-1H-indol-4-yl)methyl)-8-oxa-2-azaspiro[4.5]decan-3-yl)benzoic acid] was tested, and the IC50 was 132 nM. With COc1cc(C)c2[nH]ccc2c1CN1C[C@@H]2CC(C)(C)C[C@@H]2C1c1ccc(C(=O)O)cc1 (single isomer, unassigned) [34 (Isomer 1)] the IC50 was 7.7 nM.

Same assay, conditions: read-out: Factor B TR-FRET IC50; 10 nM his-tagged Factor B catalytic domain, 100 nM tracer, 1 h
With Cc1cc(C)c2[nH]ccc2c1CN1CC2CC2C1c1ccc(C(=O)O)cc1 (stereo not drawn) [Example 1, 4-(3-((5,7-dimethyl-1H-indol-4-yl)methyl)-3-azabicyclo[3.1.0]hexan-2-yl)benzoic acid] the IC50 was 923 nM. Compound Cc1cc(C)c2[nH]ccc2c1CN1CCC(CCO)=CC1c1ccc(C(=O)O)cc1 (stereo not drawn) [Example 4, 4-(1-((5,7-dimethyl-1H-indol-4-yl)methyl)-4-(2-hydroxyethyl)-1,2,5,6-tetrahydropyridin-2-yl)benzoic acid] has an IC50 of 173 nM. With CCOc1cc(C)c2[nH]ccc2c1CN1CCC2(C[C@H]1c1ccc(C(=O)O)cc1)CC(F)(F)C2 [Example 86] the IC50 was 2.1 nM. With [2H]C([2H])([2H])Oc1cc(C)c2[nH]ccc2c1CN1CCC2(C[C@H]1c1ccc(C(=O)O)cc1)CC(F)(F)C2 [Example 82] the IC50 was less than 2 nM. For COc1cc(C)c2[nH]ccc2c1CN1CCC2(C[C@H]1c1ccc(C(=O)O)c(C)c1)CC(F)(F)C2 [Example 62], the IC50 was less than 2 nM. For Cc1cc(C)c2[nH]ccc2c1CN1C[C@@H]2CCCCC2C1c1ccc(C(=O)O)cc1 (stereo in doubt) [Example 10, 4-(2-((5,7-dimethyl-1H-indol-4-yl)methyl)octahydro-1H-isoindol-1-yl)benzoic acid], the IC50 was 265 nM. COc1cc(C)c2[nH]ccc2c1CN1CCC2(C[C@H]1c1ccc3c(C(=O)O)cccc3c1)CC(F)(F)C2 [Example 84] gave an IC50 of 3.1 nM. In the case of COc1cc(C)c2[nH]ccc2c1CN1CCC2(C[C@H]1c1ccc(C(=O)O)c3ccccc13)CC(F)(F)C2 [Example 85], the IC50 is reported as less than 2 nM. Cc1cc(C)c2[nH]ccc2c1CN1CCC2(C[C@H]1c1ccc(C(=O)O)cc1)CC(F)(F)C2 (single isomer, unassigned) [76 (Isomer 1)] was tested, and the IC50 was less than 2 nM. CCc1cc(C)c2[nH]ccc2c1CN1CCC2(C[C@H]1c1ccc(C(=O)O)cc1)CC(F)(F)C2 [Example 80] gave an IC50 of less than 2 nM. In the case of COc1cc(C)c2[nH]ccc2c1CN1CCC2(C[C@H]1c1ccc(C(=O)O)c(F)c1)CC(F)(F)C2 [Example 64], the IC50 is reported as less than 2 nM. C=C(F)c1cc(C)c2[nH]ccc2c1CN1CCC2(C[C@H]1c1ccc(C(=O)O)cc1)CC(F)(F)C2 [Example 81] was tested, and the IC50 was 47.3 nM. COc1cc(C)c2[nH]ccc2c1CN1CCCCC1c1ccc(C(=O)O)c(C(F)F)c1 (stereo not drawn) [Example 25, 2-(difluoromethyl)-4-(1-((5-methoxy-7-methyl-1H-indol-4-yl)methyl)piperidin-2-yl)benzoic acid] showed an IC50 of 322 nM. For COc1cc(C)c2[nH]ccc2c1CN1CC(CF)CC1c1ccc(C(=O)O)cc1 (stereo not drawn) [Example 21, 4-(4-(fluoromethyl)-1-((5-methoxy-7-methyl-1H-indol-4-yl)methyl)pyrrolidin-2-yl)benzoic acid], the IC50 was 844 nM. With Cc1cc(Br)c(CN2CCC3(C[C@H]2c2ccc(C(=O)O)cc2)CC(F)(F)C3)c2cc[nH]c12 (single isomer, unassigned) [78 (Isomer 1)] the IC50 was 7.4 nM.
